{"source": "patent US20170368182A1", "about": "“Pharmaceutical Semi-Solid Gels with Entrapped Calcium Phosphate Nanoparticles” (Belmont University, priority 2014, published 2017)", "key": {"[1]": {"details": "low viscosity ophthalmic solutions; cited from earlier work"}, "[2]": {"details": "Example 2; Na CMC value theoretical; cited from earlier work"}, "[3]": {"test": "Osmolality contribution of gel components", "type": "physicochemical", "details": "0.68% timolol maleate; 0.5% carbomer 980 calculated from 0.3% carbomer 934", "protocol": "The exact osmolality 0.5% carbomer 980 gel was not known, but it was calculated using the osmolality of 0.3% carbomer 934.^19 The 0.68% timolol maleate contributes 31.4 mOsm and the carbomer contributes approximately 42 mOsm. To make the gel isotonic, 4.1 g of 5% dextrose would need to be added to obtain an isotonic gel with a tonicity of 300 mOsm. However, the results of this experiment will be compared to the results of a similar experiment using carboxymethylcellulose, CMC. […] The gel was thoroughly mixed by hand and then with a stir bar and magnetic stirrer to ensure uniformity.\nAlso, to make the concentrated 9% of the polymer to create enough for 3 gels, 9 g of the polymer was added to a 250 ml beaker. The polymer was hydrated with distilled water to 180 ml which took 1 hour to dissolve through the use of magnetic stirrer and stirring by hand. Next, 0.68 g of timolol maleate salt was added to the beaker with 60 ml of Na CMC. The contents were then q.s to a final concentration of 100 ml. […] Timolol maleate has osmolality of 31 mOsm and Na CMC has a theoretical osmolality of 470 mOsm which mitigated the need to add dextrose to reach osmolality.^18 The pH was assessed by using an electrode and the pH was between 7-8 which prevented the need to add sodium hydroxide to get to the physiological pH. […]"}, "[4]": {"details": "first seven years of use / commercial production of ophthalmic product, cited from earlier work"}}, "note": "Structures can show the parent of a compound that is named as a salt. Where two headings read alike, the source gives them in different places."}
{"smiles": "CC(C)(C)NC[C@H](O)COc1nsnc1N1CCOCC1", "note": "[Timolol maleate]", "values": [{"measurement": "share of Timolol that reaches intraocular tissues", "setting": "[1]", "result": "less than 5%"}, {"measurement": "osmolality", "setting": "[2]", "result": 31, "unit": "mOsm"}, {"measurement": "osmolality contribution", "setting": "[3]", "result": 31.4, "unit": "mOsm"}, {"measurement": "deaths", "setting": "[4]", "result": "Thirty two"}, {"measurement": "deaths", "setting": "[4]; listed as timolol maleate", "result": "~37"}]}
